Data: US7482024B2, “Compositions comprising an active agent” (Nektar Therapeutics, priority 1999, dated 2009)
Where “and” joins values, the source holds several entries; their conditions need not be identical. Equal values may be shown once. Entries after “also recorded” stand apart in the source; their conditions may differ.

Assay: Surface tension measurement, Kruss Processor Tensiometer-K12, Wilhelmy-method (plate method)
Assay type: physicochemical
Conditions: for Surface tension, 25° C. Extrapolated Values at 2 mg/ml / Surface tension, 45° C. Extrapolated Values at 2 mg/ml: extrapolated to 2 mg/ml
Method: A “surface active” material is one having surface activity (measured, e.g., by surface tensiometry), as characterized by its ability to reduce the surface tension of the liquid in which it is dissolved. […] A peptide that is more surface active than another peptide is one which decreases the surface tension of water to a greater extent, when present in the liquid at the same concentration and measured under the same set of experimental conditions. The surface tension of several representative dipeptides, tripeptides, and proteins was measured at 25° C. and 45° C. to provide an indication of their relative surface activities. Surface tension measurements were carried out using a Kruss Processor Tensiometer-K12 with the Wilhelmy-method (Plate method). Solutions were prepared by dissolving either 0.05%, 0.2%, or 0.6% peptide/protein (by weight) along with an appropriate amount of raffinose by weight to provide final solutions having a 1.0% by weight solids content. Surface tension measurements at 25° C. and 45° C. were then obtained for the test solutions at three different time points (49 seconds, 100 seconds and 194 seconds).

[1] = Table 2: 0.20% (wt/vol) plus 0.80% raffinose, 25° C., 49 s
[2] = Table 2: 0.20% (wt/vol) plus 0.80% raffinose, 25° C., 100 s
[3] = Table 2: 0.20% (wt/vol) plus 0.80% raffinose, 25° C., 194 s
[4] = 0.2% (wt/vol) plus raffinose to 1% total solids, 25° C., 49 s
[5] = 0.2% (wt/vol) plus raffinose to 1% total solids, 25° C., 100 s
[6] = 0.2% (wt/vol) plus raffinose to 1% total solids, 25° C., 194 s

di-isoleucine [reference compound]
Surface activity (ability to lower the surface tension of water), in words: not particularly effective at lowering the surface tension of water
Surface tension (ST) [1]: 67.7 mN/m and 67.6 mN/m and 68 mN/m
Surface tension (ST) [2]: 71.6 mN/m and 67.2 mN/m and 67.8 mN/m
Surface tension (ST) [3]: 71.6 mN/m and 67 mN/m and 67.6 mN/m

OC[C@H]1O[C@H](OC[C@H]2O[C@H](O[C@]3(CO)O[C@H](CO)[C@@H](O)[C@@H]3O)[C@H](O)[C@@H](O)[C@@H]2O)[C@H](O)[C@@H](O)[C@H]1O [raffinose]
Surface activity (ability to lower the surface tension of water), in words: non-surface active
Surface tension (ST) (1% raffinose, 25° C., 49 s): 72 mN/m
Surface tension (ST) (1% raffinose, 25° C., 100 s): 72 mN/m
Surface tension (ST) (1% raffinose, 25° C., 194 s): 72 mN/m
Surface tension (ST) (1% raffinose, pH4, 25° C., 49 s): 71.4 mN/m and 71.1 mN/m
Surface tension (ST) (1% raffinose, pH4, 25° C., 100 s): 71.4 mN/m and 71.1 mN/m
Surface tension (ST) (1% raffinose, pH4, 25° C., 194 s): 71.4 mN/m and 71.1 mN/m
Surface tension (ST) (1% raffinose, pH4, 45° C., 49 s): 67.9 mN/m and 68.2 mN/m and 68 mN/m
Surface tension (ST) (1% raffinose, pH4, 45° C., 100 s): 68 mN/m and 68.2 mN/m
Surface tension (ST) (1% raffinose, pH4, 45° C., 194 s): 68 mN/m and 68.2 mN/m and 68.1 mN/m
Surface tension (ST) (1% raffinose, pH7, 25° C., 49 s): 71.1 mN/m
Surface tension (ST) (1% raffinose, pH7, 25° C., 100 s): 71.1 mN/m
Surface tension (ST) (1% raffinose, pH7, 25° C., 194 s): 71.1 mN/m
Surface tension (ST) (1% raffinose, pH7, 45° C., 49 s): 68.4 mN/m and 68.3 mN/m
Surface tension (ST) (1% raffinose, pH7, 45° C., 100 s): 68.4 mN/m and 68.3 mN/m
Surface tension (ST) (1% raffinose, pH7, 45° C., 194 s): 68.4 mN/m and 68.3 mN/m

di-valine [reference compound]
Surface activity (ability to lower the surface tension of water), in words: not particularly effective at lowering the surface tension of water
Surface tension (ST) [1]: 71.7 mN/m and 71.6 mN/m
Surface tension (ST) [2]: 71.6 mN/m
Surface tension (ST) [3]: 71.6 mN/m

Leu-Tyr [reference compound]
Surface tension, Actual MEAN (0.71 mg/ml, 25° C.): 71.5 mN/m
Surface tension, Actual MEAN (0.71 mg/ml, 45° C.): 68.0 mN/m
Surface tension, Actual MEAN (2.13 mg/ml, 25° C.): 68.0 mN/m
Surface tension, Actual MEAN (2.13 mg/ml, 45° C.): 65.6 mN/m
Surface tension, Actual MEAN (6.40 mg/ml, 25° C.): 62.2 mN/m
Surface tension, Actual MEAN (6.40 mg/ml, 45° C.): 59.5 mN/m
Surface tension, 25° C. Extrapolated Values at 2 mg/ml (25° C.): 68.3 mN/m
Surface tension, 45° C. Extrapolated Values at 2 mg/ml (45° C.): 67.3 mN/m

dileucine [di-leucine]
Surface activity (ability to lower the surface tension of water), in words: highly surface active; also recorded: more effective than any of the other dimers examined in reducing the surface tension of water
Surface tension, Actual MEAN (1.51 mg/ml, 25° C.): 61.5 mN/m
Surface tension, Actual MEAN (1.51 mg/ml, 45° C.): 53.2 mN/m
Surface tension, Actual MEAN (4.53 mg/ml, 25° C.): 54.9 mN/m
Surface tension, Actual MEAN (4.53 mg/ml, 45° C.): 48.2 mN/m
Surface tension, Actual MEAN (13.60 mg/ml, 25° C.): 46.6 mN/m
Surface tension, Actual MEAN (13.60 mg/ml, 45° C.): 42.7 mN/m
Surface tension (ST) [4]: 58.4 mN/m and 58.7 mN/m and 60.1 mN/m
Surface tension (ST) [5]: 58.1 mN/m and 58.3 mN/m and 59.8 mN/m
Surface tension (ST) [6]: 57.9 mN/m and 58.2 mN/m and 59.7 mN/m
Surface tension, 25° C. Extrapolated Values at 2 mg/ml (25° C.): 60.4 mN/m
Surface tension, 45° C. Extrapolated Values at 2 mg/ml (45° C.): 52.4 mN/m

di-alanine [reference compound]
Surface tension (ST) [4]: 72 mN/m and 72.1 mN/m
Surface tension (ST) [5]: 72 mN/m and 71.9 mN/m and 72.1 mN/m
Surface tension (ST) [6]: 71.9 mN/m and 72.1 mN/m

Ala-Val-Leu [reference compound]
Surface tension, Actual MEAN (0.97 mg/ml, 25° C.): 67.5 mN/m
Surface tension, Actual MEAN (0.97 mg/ml, 45° C.): 60.3 mN/m
Surface tension, Actual MEAN (2.90 mg/ml, 25° C.): 62.8 mN/m
Surface tension, Actual MEAN (2.90 mg/ml, 45° C.): 57.7 mN/m
Surface tension, Actual MEAN (8.70 mg/ml, 25° C.): 55.7 mN/m
Surface tension, Actual MEAN (8.70 mg/ml, 45° C.): 53.8 mN/m
Surface tension, 25° C. Extrapolated Values at 2 mg/ml (25° C.): 65 mN/m
Surface tension, 45° C. Extrapolated Values at 2 mg/ml (45° C.): 58.9 mN/m
